US20100234439A1, “THERAPEUTIC AGENTS” (priority 2006, published 2010)

Molecular target: T1, CB1 receptor (Homo sapiens, UniProt P21554)
T1 construct: expressed in transfected cells; membranes prepared from them
Test: [35S]-GTPγS binding assay, membranes from cells stably transfected with the CB1 gene, inhibition of CP55940 (EC80) stimulated activity
Format: biochemical
Details: concentration giving half maximal inhibition of GTPγS binding; EC80 concentration of agonist CP55940; 30° C., 45 min
Protocol: The compound of the present invention is active against the receptor product of the CB1 gene. The affinity of the compound of the invention for central cannabinoid receptors is demonstrable in methods described in Devane et al, Molecular Pharmacology, 1988, 34,605 or those described in WO01/70700 or EP 656354. Alternatively the assay may be performed as follows.
10 μg of membranes prepared from cells stably transfected with the CB1 gene were suspended in 200 μl of 100 mM NaCl, 5 mM MgCl2, 1 mM EDTA, 50 mM HEPES (pH 7.4), 1 mM DTT, 0.1% BSA and 100 μM GDP. To this was added an EC80 concentration of agonist (CP55940), the required concentration of test compound and 0.1 μCi [^35S]-GTPγS.
The reaction was allowed to proceed at 30° C. for 45 min. […] Filters were then covered with scintilant and counted for the amount of [^35S]-GTPγS retained by the filter.
Activity is measured in the absence of all ligands (minimum activity) or in the presence of an EC80 concentration of CP55940 (maximum activity). […] At various concentrations of novel ligand, activity is calculated as a percentage of the maximum activity and plotted. The data are fitted using the equation y=A+((B−A)/1+((C/x)ÙD)) and the IC50 value determined as the concentration required to give half maximal inhibition of GTPγS binding under the conditions used.

T1 sequence (P21554 whole entry): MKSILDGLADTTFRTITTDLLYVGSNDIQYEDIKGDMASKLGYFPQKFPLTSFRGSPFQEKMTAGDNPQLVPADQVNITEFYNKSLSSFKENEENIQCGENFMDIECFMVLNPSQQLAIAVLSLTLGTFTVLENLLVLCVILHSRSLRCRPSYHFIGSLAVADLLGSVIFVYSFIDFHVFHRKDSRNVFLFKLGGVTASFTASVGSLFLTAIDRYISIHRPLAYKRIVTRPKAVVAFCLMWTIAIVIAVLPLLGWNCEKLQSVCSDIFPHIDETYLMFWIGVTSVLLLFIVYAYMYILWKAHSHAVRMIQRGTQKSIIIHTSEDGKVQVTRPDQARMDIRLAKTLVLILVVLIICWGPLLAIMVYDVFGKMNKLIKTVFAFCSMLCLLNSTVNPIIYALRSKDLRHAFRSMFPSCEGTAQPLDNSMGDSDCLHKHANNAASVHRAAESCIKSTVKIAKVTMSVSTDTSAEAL

Question: Which IC50 does the source give for O=C(N[C@@H]1CCCC[C@@H]1O)c1nn(-c2ccc(Cl)cc2Cl)c(-c2ccc(OS(=O)(=O)CCC(F)(F)F)cc2)c1CO (single isomer, unassigned) [Example 1, (+)3,3,3-Trifluoro-propane-1-sulfonic acid 4-[2-(2,4-dichloro-phenyl)-5-(2-hydroxy-cyclohexylcarbamoyl)-4-hydroxymethyl-2H-pyrazol-3-yl]-phenyl ester] here?
Answer: 1 nM
